Assay in all cases: MTT cytotoxicity assay (Example 1)
One assay deals with HCT116 p53+/+. In kind it is cell-based. The following applies: MTT, 72 h. The text has this:
(§1) Human breast cancer cells MDA-MB-435 were purchased from the American Type Culture Collection (Manassas, Va.). The HCT116 p53+/+ and HCT116 p53−/− cells were kindly provided by Dr. Bert Vogelstein (Johns Hopkins Medical Institutions, Baltimore, Md.). The human ovarian carcinoma cell line (HEY) which is naturally resistant to cisplatin, was kindly provided by Dr. Louis Dubeau, University of Southern California (USC) Norris Cancer Center, and NIH3T3 normal mouse fibroblast cells were kindly provided by Dr. Michael Press from USC. HEY and NIH3T3 cells were maintained as monolayer cultures in RPMI, HCT 116 cells in McCoy1s5A media and MDA-MB 435 in DMEM. Media were purchased from (Mediatech, Virginia) and supplemented with 10% fetal bovine serum (Gemini-Bioproducts, Woodland, Calif.), 2 mM L-glutamine and 5% Penicillin/streptomycin from Bio whittaker were purchased from VWR. Cells were incubated at 37° C. in a humidified atmosphere of 5% CO2. To remove the adherent cells from the flask for passaging and counting, cells were washed with PBS without calcium or magnesium, incubated with a small volume of 0.25% trypsin-EDTA solution (Sigma-Aldrich, St. Louis, Mo.) for 5-10 min, and washed with culture medium and centrifuged. All experiments were performed using cells at exponential growth stage. Cells were routinely checked for mycoplasma contamination using a PCR-based assay (Stratagene, Tex., USA).
(§2) Stock solutions (10 mM) of all compounds were prepared in DMSO and stored at −20° C. Further dilutions were made fresh in PBS or cell-culture media right before cell treatment.
(§3) Cytotoxicity was assessed by a 3-(4,s-dimethylthiazol-2-yl)-2,5-diphenyltetrazolium bromide (MTT) assay as previously described.^24 Briefly, cells were seeded in 96-well microtiter plates and allowed to attach overnight. Cells were subsequently treated with continuous exposure to the corresponding drug for 72 h. A MTT solution (at a final concentration of 0.5 mglml) was added to each well, and cells were incubated for 4 h at 37° C. After removal of the medium, DMSO was added and the absorbance was read at 570 nm. All assays were done in triplicate. The IC50 was then determined for each drug from a plot of log (drug concentration) versus percentage of cells killed.

In another assay the test system is HCT116 p53−/−. In kind it is cell-based. Conditions: MTT, 72 h.
Description: as §1, §2, §3

A further assay relates to HEY. Format: cell-based, human. Conditions: 72 h.
Description: as §1, §2, §3

The test system of the next assay is MDA-MB-435. In kind it is cell-based, human. Conditions: Homo sapiens, MDA-MB-435, 72 h.
Description: as §1, §2, §3

For the next assay, the system named is NIH3T3. In kind it is cell-based, mouse.
Description: as §1, §2, §3

This note sets out measurements from patent US8445677B2, “Substituted pyrimidyl guanidine derivatives having anticancer activity” (University of Southern California, priority 2008, dated 2013).

The structures appear in SMILES notation.

As for `Cc1ccccc1Nc1nc2nonc2nc1N/N=C/c1cc(Br)ccc1O` [Compound 8], the IC50 (in general, the concentration that gives 50% inhibition) with HCT116 p53+/+ (Homo sapiens, HCT-116, 72 h) was 2 µM; in the assay on HCT116 p53−/− (Homo sapiens, HCT-116, 72 h) it was 1.1 ± 0.4 µM; with HEY (Homo sapiens), 5 µM; with MDA-MB-435, > 10 µM; in the assay with NIH3T3 (Mus musculus, NIH3T3, 72 h), > 10 µM.
Take `COc1ccccc1Nc1nc2nonc2nc1N/N=C/c1ccccc1F` [Compound 10]: the half-inhibitory concentration (IC50) in the assay with HCT116 p53+/+ (Homo sapiens, HCT-116, 72 h) is > 10 µM; in the assay on HCT116 p53−/− (Homo sapiens, HCT-116, 72 h), > 10 µM; in the assay on HEY (Homo sapiens), > 10 µM; in the assay with MDA-MB-435, > 10 µM; with NIH3T3 (Mus musculus, NIH3T3, 72 h), > 10 µM.
With `CCCCn1c(=O)c(C(=O)Nc2nc(CC(=O)OCC)cs2)c(O)c2ccccc21` [Compound 32], the IC50 in the assay on HCT116 p53+/+ (Homo sapiens, HCT-116, 72 h) was 10 ± 1 µM; in the assay with HCT116 p53−/− (Homo sapiens, HCT-116, 72 h), > 10 µM; with HEY (Homo sapiens), 15 µM; in the assay on MDA-MB-435 it was 20 µM; in the assay on NIH3T3 (Mus musculus, NIH3T3, 72 h), 8 µM.
With `O=C(O)c1cc(-c2ccc(C=NNc3nc4nonc4nc3Nc3ccc(F)cc3)o2)ccc1Cl` [Compound 13], the IC50 was > 10 µM in the assay with HCT116 p53+/+ (Homo sapiens, HCT-116, 72 h); 7 µM in the assay with HCT116 p53−/− (Homo sapiens, HCT-116, 72 h); > 10 µM with HEY (Homo sapiens); > 10 µM in the assay with MDA-MB-435; 10 µM in the assay on NIH3T3 (Mus musculus, NIH3T3, 72 h).
As for `C1C2CC3CC1CC(C2)C3Nc1nc2nonc2nc1NC1C2CC3CC(C2)CC1C3` (centres unmarked) [Compound 24], the IC50 was found to be 6 µM in the assay with HCT116 p53+/+ (Homo sapiens, HCT-116, 72 h); 8 µM with HCT116 p53+/+; 9 ± 1 µM with HCT116 p53−/− (Homo sapiens, HCT-116, 72 h); 8 ± 1.7 µM in the assay with HEY (Homo sapiens); 9 µM with MDA-MB-435; 9 µM in the assay on NIH3T3 (Mus musculus, NIH3T3, 72 h).
Turning to `Cc1cccc(Nc2nc3nonc3nc2NN=Cc2ccc(-c3cccc(C(=O)O)c3)o2)c1` [Compound 20], the half-inhibitory concentration (IC50) was > 10 µM in the assay on HCT116 p53+/+ (Homo sapiens, HCT-116, 72 h); > 10 µM in the assay with HCT116 p53−/− (Homo sapiens, HCT-116, 72 h); 8 µM in the assay on HEY (Homo sapiens); > 10 µM in the assay on MDA-MB-435; 10 µM in the assay with NIH3T3 (Mus musculus, NIH3T3, 72 h).
In the case of `c1cc(N2CCOCC2)ccc1Nc1nc2nonc2nc1Nc1ccc(N2CCOCC2)cc1` [Compound 23], the 50% inhibitory concentration (IC50) is > 10 µM in the assay with HCT116 p53+/+ (Homo sapiens, HCT-116, 72 h); > 10 µM in the assay on HCT116 p53−/− (Homo sapiens, HCT-116, 72 h); > 10 µM in the assay with HEY (Homo sapiens); > 10 µM in the assay with MDA-MB-435; > 10 µM in the assay on NIH3T3 (Mus musculus, NIH3T3, 72 h).
As to `c1coc(CNc2nc3nonc3nc2NCc2ccco2)c1` [Compound 21], the IC50 is > 20 µM in the assay with HCT116 p53+/+ (Homo sapiens, HCT-116, 72 h); > 10 µM in the assay on HCT116 p53−/− (Homo sapiens, HCT-116, 72 h); > 20 µM in the assay on HEY (Homo sapiens); > 20 µM in the assay on MDA-MB-435; > 10 µM with NIH3T3 (Mus musculus, NIH3T3, 72 h).
Regarding `CCCc1nc2ccccc2c(=O)n1NC(=O)c1c(O)c2cccc3c2n(c1=O)CCC3` [Compound 27], the concentration for half-maximal inhibition (IC50) in the assay with HCT116 p53+/+ (Homo sapiens, HCT-116, 72 h) was > 20 µM; with HCT116 p53−/− (Homo sapiens, HCT-116, 72 h), > 10 µM; in the assay on HEY (Homo sapiens) it was > 20 µM; with MDA-MB-435, > 20 µM; in the assay with NIH3T3 (Mus musculus, NIH3T3, 72 h) it was 12 µM.
Take `CCOc1ccc2nc(NC(=N)/N=C(\C)c3ccccc3C(=O)O)nc(C)c2c1` [Compound 34]: the 50% inhibitory concentration (IC50) in the assay on HCT116 p53+/+ (Homo sapiens, HCT-116, 72 h) is 20 µM; with HCT116 p53−/− (Homo sapiens, HCT-116, 72 h), 10 µM; in the assay with HEY (Homo sapiens), 7 µM; in the assay with MDA-MB-435, > 20 µM; in the assay with NIH3T3 (Mus musculus, NIH3T3, 72 h) it was > 10 µM.
As for `COc1cc(/C=N/Nc2nc3nonc3nc2Nc2ccccc2F)ccc1O` [Compound 3], the IC50 is > 10 µM with HCT116 p53+/+ (Homo sapiens, HCT-116, 72 h); > 10 µM in the assay with HCT116 p53−/− (Homo sapiens, HCT-116, 72 h); 5 µM with HEY (Homo sapiens); > 10 µM in the assay with MDA-MB-435; > 10 µM in the assay on NIH3T3 (Mus musculus, NIH3T3, 72 h).
Take `COC(=O)/C=C1/N=C(Nc2nc3cc(C)ccc3o2)NC1=O` [Compound 35]: the concentration for half-maximal inhibition (IC50) with HCT116 p53+/+ (Homo sapiens, HCT-116, 72 h) came to 5 µM; in the assay with HCT116 p53−/− (Homo sapiens, HCT-116, 72 h) it was 4.2 µM; in the assay on HCT116 p53−/−, 3.4 µM; in the assay with HEY, 2 µM; in the assay on HEY (Homo sapiens) it was 3.5 µM; in the assay with MDA-MB-435 it was 6 µM. The IC50 in the assay with NIH3T3 (72 h) worked out at 6 µM; in the assay with NIH3T3 (Mus musculus, NIH3T3, 72 h), 11 µM.
Consider `Cc1cc(-c2ccc(/C=N/Nc3nc4nonc4nc3Nc3ccccc3F)o2)c(C)c([N+](=O)[O-])c1` [Compound 16], for which the IC50 came out at 1.5 µM with HCT116 p53+/+ (Homo sapiens, HCT-116, 72 h); 0.8 ± 0.1 µM with HCT116 p53−/− (Homo sapiens, HCT-116, 72 h); 0.8 µM in the assay on HEY (Homo sapiens); 4 µM with MDA-MB-435; 2 µM in the assay with NIH3T3 (Mus musculus, NIH3T3, 72 h).
The corresponding values for `O=C(O)c1ccccc1Nc1nc2nonc2nc1Nc1ccccc1C(=O)O` [Compound 22] are > 10 µM, > 10 µM, > 10 µM, > 10 µM and > 10 µM.
